Laboratory results: patent US20100168033A1, “UNACYLATED GHRELIN AS THERAPEUTIC AGENT IN THE TREATMENT OF METABOLIC DISORDERS” (ALIZE PHARMA SAS, priority 2007, published 2010)
Where two headings read alike, the source gives them in different places. Non-standard residues stand in square brackets, D forms with d. No end group written: not given here.

Experiments:
[1] = test system: HIT-T15 β-cells; assay type: cell-based; conditions: for increase of cell survival: serum-free conditions
Method: MTT experiments were also performed in hamster HIT-T15 β-cells, to test the survival effect of UAG (1-28) or its fragments UAG (1-14), UAG (1-18), UAG (1-5) and UAG (17-28) in serum deprived medium, either alone or with IFN-γ/TNF-α/IL-1β. As for the experiments performed on INS-1E β-cells, the peptides were tested at increasing concentrations, ranging from 0.1 nM to 100 nM.
The survival effect of UAG (6-13), UAG (8-13), UAG (8-12), UAG (8-11), UAG (9-12) and UAG (9-11) was assessed in cytokine-treated HIT-T15 β-cells.
The protective effects of peptides UAG (8-13) and UAG (8-12) were found similar to those of UAG (1-14) and UAG (1-18) A peptide made of the inverse sequence of UAG (1-14) and named UAG (14-1), was used as negative control for these experiments (FIG. 5A). […] These effects were however lower than those of UAG (6-13) (FIG. 5B).
UAG fragments with alanine (Ala) substitutions at different amino acid positions (6 to 13) were tested with regards to their survival effects in HIT-T15 hamster β-cells. The cells were cultured in serum deprived medium, either alone or with IFN-γ/TNF-α/IL-1β. The peptides were tested at the concentrations of 1 nM to 100 nM. […] Under treatment with cytokines, where cell survival was reduced by ≈18% with respect to serum starved conditions, all Ala substitutions, except those at positions 10 and 11, completely reversed cell death and brought the survival rate to levels that were even higher than those under serum-free conditions, at both 1 nM and 100 nM concentrations. These effects, were similar to those elicited by the original peptide UAG (6-13) (FIG. 11B).
Particularly, the best effect was exerted by Gly 6-UAG (6-13), whereas the lowest was seen using AcSer 6-UAG (6-13), AcSer 6-(D)Pro 7-UAG (6-13) (FIG. 12B).
(§1) Cell culture—Hamster HIT-T15 insulin-secreting β-cells were obtained and cultured as described (Refs. 14, 4). INS-1E rat β-cells were kindly provided by Prof. Claes B. Wollheim (University Medical Center, Geneva, Switzerland) and cultured as described (Refs. 14, 4). Cell culture reagents were from Invitrogen (Milano, Italy). Cytokines were from Biosource (Invitrogen, Italy).
(§2) Cell survival assay—Cell survival was assessed by 3-[4,5-dimethylthiazol-2-yl]-2,5 diphenyltetrazolium bromide (MTT) as described previously (Ref. 4). Cells were seeded on 96-well plates at a density of 5×10^3 cells/well. After treatments, cells were incubated with 1 mg/ml MTT for ≈1 h. The medium was aspirated, and the formazan product solubilized with 100 μl DMSO. Viability was assessed by spectrophotometry at 570 nm absorbance using a 96-well plate reader.

[2] = test system: HIT-T15 β-cells; experiment: Apoptosis in cytokine-treated HIT-T15 β-cells; assay type: cell-based, hamster; conditions: for cytokine-induced apoptosis: 24 h serum-free medium with IFN-γ/TNF-α/IL-1β, peptides 1, 10, 100 nM
Method: HIT-T15 β-cells were cultured for 24 h in serum-free medium, either alone or with IFN-γ/TNF-α/IL-1β. In both cell lines, apoptosis increased under cytokine treatment, with respect to serum starvation alone. […] UAG (14-1), the inverse sequence of UAG (1-14), was used as negative control, whereas UAG (1-28), was used as positive control in each experiment.

[3] = test system: INS-1E β-cells; experiment: MTT cell survival assay in INS-1E β-cells; assay type: cell-based, rat; conditions: peptides 0.1 nM to 100 nM
Method: The peptides were tested at increasing concentrations, ranging from 0.1 nM to 100 nM.
as §1, §2

[4] = test system: human pancreatic islets; experiment: MTT cell survival assay in human pancreatic islets; assay type: cell-based; conditions: 1 nM to 100 nM
Method: The survival effect of UAG (1-14), UAG (1-18), UAG (1-5) and UAG (17-28), with respect to that of full length UAG (1-28), was assessed in human pancreatic islets by MTT. The peptides were tested in islet cells cultured in serum deprived medium, either alone or with IFN-γ/TNF-α/IL-1β (5 ng/ml each).
Human islet isolation—Human islets were obtained from pancreases of multiorgan donors as described (Ref. 4). Islet preparations with purity >70%, not suitable for transplantation, were provided by European Consortium for Islet Transplantation (ECIT) “Islets for Research Distribution Program,” Transplant Unit, Scientific Institute San Raffaele, Vita-Salute University, Milan. Islets (10,000) were cultured in CMRL (Invitrogen) with 10% FBS.
as §2

[5] = test system: human pancreatic islets; experiment: Insulin secretion in human pancreatic islets; assay type: cell-based; conditions: peptide 100 nM; glucose absent or 2 to 25 mM
Method: The effects of UAG (1-14) and UAG (1-18), both used at 100 nM, were investigated on insulin secretion in human islets. […] UAG (1-28) and Exendin-4 were used as positive controls (FIGS. 8C and 8D).

[6] = test system: Streptozotocin (STZ)-treated animals; experiment: Streptozotocin (STZ)-treated neonatal rats, diabetes model; assay type: in vivo, rat; conditions: for animal survival rate: day 9 after STZ
Source text: Natural birth occurred 6-7 days later. […] Pups were left with their mothers.
Pancreas removal and treatment—After excision, pancreases were removed and weighed.

[7] = test system: ob/ob mice; experiment: ob/ob mice, 4-week intraperitoneal pump infusion; assay type: in vivo, mouse
Method: Baseline tail vein plasma samples were collected from free-fed and 16 h fasted ob/ob mice 7 and 6 days before pump implantation into K2EDTA coated capillary tubes (Microvette CB300 K2E; Sarstedt, Germany). The animals were then separated into three groups with approximately equivalent weight ranges. Ten week old mice were anesthetized, and a filled Alzet 1004 pump was inserted, delivery portal first, into the peritoneal cavity. The musculoperitoneal and skin layers were then closed using interrupted sutures (Vicryl 5.0 FS-2 absorbable suture). Animals received pumps containing either saline, 10 mg/ml UAG, or 3.5 mg/mL UAG (6-13) (n=8 per group). Alzet 1004 pumps deliver […], and infused 30 μg of hUAG/animal/day (˜600 μg/kg/day) and 10 μg of UAG (6-13)/animal/day (˜200 μg/kg/day).
Blood samples (at 0900-1000) were obtained from fed and fasted animals at weeks 2 and 4 via the tail vein into EDTA Microvette tubes. Glucose levels in tail vein blood were measured directly using a glucometer. On the last day of treatment baseline (fasted) blood samples were taken.
For the experimental data illustrated in FIGS. 14A, 14B, 15 and 16, the animals were obtained from Charles River Laboratories (Maastricht, The Netherlands). Animals (B6.V-Lep^ob/J, Charles River Laboratories, Belgian colony) were received in our animal facilities at 8 weeks of age, and acclimatized in individual cages for 2 weeks before treatments began. They were maintained under standard 12:12 h light:dark conditions, 21° C., and were allowed free access to food and water. The animals were also handled daily to accustom them to the method used for blood collection. The peptides were dissolved in sterile, nonpyrogenic, 0.9% saline (Baxter BV, Utrecht, The Netherlands). D-glucose was obtained from Sigma-Aldrich Chemie BV (Zwijndrecht, The Netherlands), and was dissolved at 400 mg/ml in 0.9% saline. Alzet pumps (model 1004) were obtained from Charles River Laboratories (Maastricht, The Netherlands). Pumps were filled with 0.9% saline, UAG or UAG (6-13) solution under sterile conditions, and pre-incubated in 0.9% saline for at least 48 hours at 37° C. to initiate flow. Blood glucose levels were measured directly from tail vein incisions using a Freestyle mini glucometer and test strips (ART05214 Rev.A; Abbot, Amersfoort, The Netherlands). Plasma insulin levels were assayed by Ultra-sensitive mouse insulin ELISA (Cat. #10-1150-10; Mercodia, Sweden).

[8] = test system: UAG receptor on HIT-T15 pancreatic β-cells; experiment: [125I-Tyr4]-UAG competition binding, HIT-T15 membranes; parameters: species or system hamster; conditions: for binding to the UAG receptor: HIT-T15 cells
Method: (§3) The ability of the fragment UAG (6-13) to compete in a concentration-dependent manner with [^125I-Tyr^4]-UAG for HIT-T15 (FIG. 10A) and INS-1E (FIG. 10B) binding sites was assayed. As shown in FIGS. 10A and 10B, unlabelled UAG (1-28) and UAG (6-13) competed with a similar efficacy and in a concentration-dependent fashion with [^125I-Tyr^4]-UAG for such binding sites in both cell lines.
(§4) Binding assay—Membranes from hamster HIT-T15 and rat INS-1E to pancreatic β-cells were prepared and assayed for the presence of [^125I-Tyr^4]-UAG binding. The ability of UAG fragments to compete with the radioligand for such binding sites has been evaluated as previously described (Ref. 4). Data are presented as mean±S.E.M. of three independent experiments.

[9] = test system: UAG receptor on INS-1E pancreatic β-cells; experiment: [125I-Tyr4]-UAG competition binding, INS-1E membranes; parameters: species or system rat; conditions: for binding to the UAG receptor: INS-1E cells
Method: as §3, §4

[10] = serum deprived medium with IFN-γ/TNF-α/IL-1β
[11] = serum deprived medium with IFN-γ/TNF-α/IL-1β (5 ng/ml each)

With “Ac-Ser-Pro-Glu-His-Gln-Arg-Val-Gln-NH2 (Ac-SPEHQRVQ-NH2; listed as Homo sapiens) [AcSer 6-UAG (6-13)]” the “cell survival (MTT)” value [1, 10] was “lowest”.

“Ac-Ser-pro-Glu-His-Gln-Arg-Val-Gln-NH2 (Ac-S[dP]EHQRVQ-NH2; listed as Homo sapiens) [AcSer 6-(D)Pro 7-UAG (6-13)]” was tested, and the “cell survival (MTT)” value [1, 10] was “lowest”.

With EHQRVQ [UAG (8-13)] the cytokine-induced apoptosis [2] was “significantly inhibited apoptosis at 10 and 100 nM”.

ESKKPPAKLQPR [UAG (17-28)] was tested, and the “cell survival (MTT)” value [3, 10] was “reduced effect”, the “cell survival (MTT)” value ([3]; serum-free medium) was “reduced, although significant, survival action” and the “cell survival (MTT)” value ([1]; serum deprived medium alone) was “no significant effect”. The “cell survival (MTT)” value [1, 10] was “no significant effect”, the “cell survival (MTT)” value ([4]; serum deprived medium alone) was “significantly increased survival of islet cells” and the “cell survival (MTT)” value [4, 11] was “had no effect”.

For GSSFLSPEHQRVQQRKES [UAG (1-18)], the “cell survival (MTT)” value [3, 10] was “more potent than full length UAG (1-28)”, the “cell survival (MTT)” value ([3]; serum-free medium) was “significant survival effect, comparable to that of UAG (1-28)” and the “cell survival (MTT)” value ([1]; serum deprived medium alone) was “significantly increased cell viability”. For the same substance, the “cell survival (MTT)” value [1, 10] was “significantly increased cell viability”, the “cell survival (MTT)” value ([4]; serum deprived medium alone) was “significantly increased cell survival at 1 nM and 10 nM” and the insulin secretion [5] was “significant effect with 7.5 mM glucose”.

With “Glu-His-Gln-Arg (EHQR; listed as Homo sapiens) [UAG (8-11)]” the “cell survival (MTT)” value [1, 10] was “significant survival effect only at 100 nM”.

“Glu-His-Gln-Arg-Val (EHQRV; printed: Glu-His-Gln-Arg-Val) [UAG (8-12)]” was tested, and the cytokine-induced apoptosis [2] was “some protective effect only at 100 nM”.

In the case of “Gly-Pro-Glu-His-Gln-Arg-Val-Gln-NH2 (GPEHQRVQ-NH2; listed as Homo sapiens) [Gly 6-UAG (6-13)]”, the “cell survival (MTT)” value [1, 10] is reported as “best effect”.

In the case of “Gly-Ser-Ser-Phe-Leu (GSSFL; listed as Homo sapiens) [UAG (1-5)]”, the “cell survival (MTT)” value [3, 10] is reported as “reduced effect”, the “cell survival (MTT)” value ([3]; serum-free medium) is reported as “reduced, although significant, survival action” and the “cell survival (MTT)” value [1, 10] is reported as “slightly increased cell survival”. The “cell survival (MTT)” value ([4]; serum deprived medium alone) was “little, although significant survival action at 10 nM” and the “cell survival (MTT)” value [4, 11] was “no cell protection”.

His-Gln-Arg [UAG (9-11)] was tested, and the “cell survival (MTT)” value [1, 10] was “no significant effect at both concentrations tested”.

For “His-Gln-Arg-Val (HQRV; listed as Homo sapiens) [UAG (9-12)]”, the “cell survival (MTT)” value [1, 10] was “significantly increased cell survival at both the concentrations tested”.

In the case of “SPEHQRVQ [UAG (6-13), Ser-Pro-Glu-His-Gln-Arg-val-Gln]”, the “increase of cell survival” value ([1]; peptide 1 nM) is reported as “≈ 18%”, the “increase of cell survival” value ([1]; peptide 100 nM) is reported as “≈ 30%” and the cytokine-induced apoptosis [2] is reported as “significantly reduced cytokine-induced apoptosis”. For the same substance, the “cell number and morphology” value ([2]; with respect to cytokine condition, data not shown) was “increased the number of cells, induced cell enlargement and small islets formation”, the animal survival rate ([6]; 30 nmol/l) was “≈ 71%” and the animal survival rate ([6]; 100 nmol/l) was 89%. For the same substance, the “reduction of plasma glucose vs. STZ group” value ([6]; day 70, 30 nmol/l) was 31%, the “reduction of plasma glucose vs. STZ group” value ([6]; day 70, 100 nmol/l) was 14% and the plasma insulin levels ([6]; day 70, STZ-treated rats, UAG (6-13) at both concentrations) was “increasing insulin levels”. The “suppressive effect on plasma glucose levels in fed animals” value ([7]; fed animals, relative to saline controls) was 30-40%, the “fed plasma glucose levels” value ([7]; fed animals, relative to saline controls, not statistically significant (RM-ANOVA)) was “consistent suppressive effect” and the gonadal fat weight ([7]; over the period of treatment) was “did not cause an increase in gonadal fat weight”. For the same substance, the “decrease of gonadal fat pad weight relative to saline treated controls” value ([7]; period of treatment, trend p<0.06) was “approximately 7%”, the “binding to the UAG receptor” value [8] was “highest binding activity” and the IC50 ([8]; HIT-T15 membranes, mean±S.E.M. of three experiments) was 3.8 ± 0.3 nM. For the same substance, the “binding to the UAG receptor” value [9] was “highest binding activity” and the IC50 ([9]; INS-1E membranes, mean±S.E.M. of three experiments) was 2.4 ± 0.3 nM.

With “UAG (1-13): UAG fragment named only in b93 as binding to the UAG receptor; no sequence listed (GSSFLSPEHQRVQ)” the “binding to the UAG receptor” value [8] was “recognized and bound to the UAG receptor” and the “binding to the UAG receptor” value [9] was “recognized and bound to the UAG receptor”.
